Read-outs that look alike come from different tables or passages of the source.
How the values were obtained:
[1] = test system: KPL-4 breast cancer cell line; experiment: Tumor cell proliferation assay (CellTiter-Glo, 72 h), KPL-4; format: cell-based
Description: Biological Assay 4.0: Tumor Cell Proliferation Assays
Compounds were tested in a cell-based assay that measures the capacity of the compounds to inhibit tumour cell proliferation following a 72h drug exposure. Cell viability is determined using CellTiter-Glow® (CTG, Promega, cat# G7571/2/3). The CellTiter-Glo® Luminescent Cell Viability Assay is a homogeneous method to determine the number of viable cells in culture. Detection is based on using the luciferase reaction to measure the amount of ATP from viable cells. The amount of ATP in cells correlates with cell viability. Within minutes after a loss of membrane integrity, cells lose the ability to synthesize ATP, and endogenous ATPases destroy any remaining ATP; thus the levels of ATP fall precipitously.
For each cell line assayed, cells were plated onto a separate plate for determination of […] at t=0 hour and t=72 hour time points. Following overnight incubation at 37° C., chemiluminescence values for the t=0 samples were determined after adding 10 μl medium and 100 μl CTG solution according to manufacture protocol. Plates for the t=72 hour time points were treated with compounds diluted into growth medium at ten times final concentration added in 10 μL to the cell culture plate. Cells were then incubated for 72 hours at 37° C. Chemiluminescence values for the t=72 hour samples were determined. […] Experiments were controlled using a reference compound as standard.

[2] = target: His-tagged human recombinant kinase full-length Akt1 (Homo sapiens (Human), UniProt P31749); experiment: Akt1 kinase assay (TR-FRET); format: biochemical; details: 10 μM ATP; read-out: Akt1, median IC50
Chain of His-tagged human recombinant kinase full-length Akt1 (P31749 whole entry): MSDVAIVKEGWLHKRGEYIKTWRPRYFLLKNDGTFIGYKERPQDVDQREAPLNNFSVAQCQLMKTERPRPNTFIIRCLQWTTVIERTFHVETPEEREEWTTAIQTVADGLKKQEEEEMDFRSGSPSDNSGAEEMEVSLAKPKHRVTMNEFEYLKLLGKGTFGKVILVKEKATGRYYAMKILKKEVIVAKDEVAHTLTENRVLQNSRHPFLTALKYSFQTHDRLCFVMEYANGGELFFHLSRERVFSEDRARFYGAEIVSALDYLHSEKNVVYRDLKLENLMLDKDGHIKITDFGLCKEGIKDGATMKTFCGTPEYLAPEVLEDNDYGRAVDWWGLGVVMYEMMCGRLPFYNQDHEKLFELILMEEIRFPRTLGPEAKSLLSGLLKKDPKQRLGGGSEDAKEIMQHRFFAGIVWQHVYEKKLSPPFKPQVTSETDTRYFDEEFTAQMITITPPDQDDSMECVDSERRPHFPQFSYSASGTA
Description: Biological Assay 1.0: Akt1 Kinase Assay
Akt1 inhibitory activity of compounds of the present invention was quantified employing the Akt1 TR-FRET assay as described in the following paragraphs.
As substrate for the kinase reaction the biotinylated peptide biotin-Ahx-[…] (C-terminus in amide form) was used which can be purchased e.g. from the company Biosynthan GmbH (Berlin-Buch, Germany).
For the assay 50 nl of a 100 fold concentrated solution of the test compound in DMSO was pipetted into a black low volume 384 well microtiter plate (Greiner Bio-One, Frickenhausen, Germany), 2 μl of a solution of Akt1 in assay buffer [50 mM TRIS/HCl pH 7.5, 5 mM MgCl2, 1 mM dithiothreitol, 0.02% (v/v) Triton X-100 (Sigma)] were added and the mixture was incubated for 15 min at 22° C. to allow prebinding of the test compounds to the enzyme before the start of the kinase reaction. […] The concentration of Akt1 in the assay was adjusted depending of the activity of the enzyme lot and was chosen appropriate to have the assay in the linear range, typical enzyme concentrations were in the range of about 0.05 ng/μl (final conc. in the 5 μl assay volume).
The resulting mixture was incubated 1 h at 22° C. to allow the binding of the biotinylated phosphorylated peptide to the streptavidine-XL665 and the antibodies. Subsequently the amount of phosphorylated substrate was evaluated by measurement of the resonance energy transfer from the anti-mouse-IgG-Eu-Chelate to the streptavidine-XL665.

[3] = test system: p-AKT1/2/3-S473 in KPL4 breast tumour cell line; experiment: Cellular p-AKT1/2/3-S473 assay; format: cell-based; details: read-out: pAKT-S743 median IC50
Description: The molecular mechanism of action was investigated in a set of experiments to assess the inhibition of the PI3K-AKT-mTOR pathway in responsive cell lines such as KPL4 breast tumour cell line (PIK3CAH1047R, HER20/E and hormone independent). The phospho-substrates of PI3K-AKT-mTOR axis were used as the read-outs to reflect pathway inhibition. Cells were seeded at 60-80% confluency per well in 96-well cell culture plates. After overnight incubation at 37° C. 5% CO2, cells were treated with compounds and vehicle at 37° C. for 2 hours. […] All measurements where at least done in duplicates and confirmed by independent repetition.
Alternatively pAKT-S473 was measured using the “Akt Duplex” of the MULTI-SPOT® Assay System (Fa. Meso Scale Discovery, Cat# N41100B-1) following manufacturers instructions. Each assay used 20 μg of protein extract and measured total AKT and p-AKT content simultaneously in one well. All measurements where at least done in duplicates and confirmed by independent repetition. Values for P-AKT are expressed as percentage of P-AKT level compared to total-AKT content of the extracts.

[4] = KPL4 breast tumour cell line, 2 hours treatment

Compound	IC50 ([1]; KPL4, 72h drug exposure) [nM]	IC50 [2] [nM]	IC50 [3, 4] [nM]	IC50 ([3]; KPL4, 2 h) [nM]	IC50 ([1]; 72h drug exposure) [nM]
NC1(c2ccc(-c3nc4cc(Cl)ccn4c3-c3ccccc3)cc2)CCC1 [Example 2-66]	1800	113	134		
NC1(c2ccc(-c3nc4ccccn4c3-c3ccccc3)cc2)CCC1 [Example 2-106, 1-[4-(3-phenyl-imidazo[1,2-a]pyridin-2-yl)-phenyl]-cyclobutylamine]	2100	151	202		
CCOc1ccc2nc(-c3ccc(C4(N)CCC4)cc3)c(-c3ccccc3)n2c1 [Example 2-107, 1-[4-(6-ethoxy-3-phenyl-imidazo[1,2-a]pyridin-2-yl)-phenyl]-cyclobutylamine]	1700	204	253		
C=Cc1ccn2c(-c3ccccc3)c(-c3ccc(C4(N)CCC4)cc3)nc2c1 [Example 2-108, 1-[4-(3-phenyl-7-vinyl-imidazo[1,2-a]pyridin-2-yl)-phenyl]-cyclobutylamine]	10000	1950	3100		
NC1(c2ccc(-c3nc4cc(-c5ccncc5)ccn4c3-c3ccccc3)cc2)CCC1 [Example 2-109, 1-[4-(3-phenyl-7-pyridin-4-yl-imidazo[1,2-a]pyridin-2-yl)-phenyl]-cyclobutylamine]	1500	181	28		
NC1(c2ccc(-c3nc4cc(-c5cc[nH]n5)ccn4c3-c3ccccc3)cc2)CCC1 [Example 2-112]	1700	153	66		
Cn1cncc1-c1ccn2c(-c3ccccc3)c(-c3ccc(C4(N)CCC4)cc3)nc2c1 [Example 2-116]	1600	236	63		
NC1(c2ccc(-c3nc4cc(-c5nn[nH]n5)ccn4c3-c3ccccc3)cc2)CCC1 [Example 2-117]	10000	26	10000		
CCOC(=O)c1ccn2c(-c3ccccc3)c(-c3ccc(C4(N)CCC4)cc3)nc2c1 [Example 2-119]	4200	86	725		
NC1(c2ccc(-c3nc4cc(C(=O)O)ccn4c3-c3ccccc3)cc2)CCC1 [Example 2-120]	10000	550	8120		
CNC(=O)c1ccn2c(-c3ccccc3)c(-c3ccc(C4(N)CCC4)cc3)nc2c1 [Example 2-122]	1200	409	46		
COC(=O)/C=C/c1ccn2c(-c3ccccc3)c(-c3ccc(C4(N)CCC4)cc3)nc2c1 [Example 2-123]	2400	345	268		
NC1(c2ccc(-c3nc4ccc(-c5cc[nH]n5)cn4c3-c3ccccc3)cc2)CCC1 [Example 2-131]	1700	171	88		
NC1(c2ccc(-c3nc4ccc(-c5nn[nH]n5)cn4c3-c3ccccc3)cc2)CCC1 [Example 2-135]	10000	74	9810		
NC1(c2ccc(-c3nc4ccc(-c5ccncc5)cn4c3-c3ccccc3)cc2)CCC1 [Example 2-136]	1900	533	150		
NC1(c2ccc(-c3nc4ccc(-c5cccnc5)cn4c3-c3ccccc3)cc2)CCC1 [Example 2-137]	1700	541	149		

Compound	IC50 ([1]; KPL4, 72h drug exposure) [nM]	IC50 [2] [nM]	IC50 [3, 4] [nM]	IC50 ([3]; KPL4, 2 h) [nM]	IC50 ([1]; 72h drug exposure) [nM]
NC1(c2ccc(-c3nc4ccc(-c5ccccn5)cn4c3-c3ccccc3)cc2)CCC1 [Example 2-138]	2400	530	541		
NC1(c2ccc(-c3nc4ccc(Br)cn4c3-c3ccccc3)cc2)CCC1 [Example 2-139]	2000	44		181	
COC(=O)/C=C/c1ccc2nc(-c3ccc(C4(N)CCC4)cc3)c(-c3ccccc3)n2c1 [Example 2-141]		196	361		5300
NC(=O)/C=C/c1ccc2nc(-c3ccc(C4(N)CCC4)cc3)c(-c3ccccc3)n2c1 [Example 2-142]	2600	347	114		
Cn1cc(-c2ccn3c(-c4ccccc4)c(-c4ccc(C5(N)CCC5)cc4)nc3c2)cn1 [Example 2-150]	1700	558	66		
NCCOc1ccn2c(-c3ccccc3)c(-c3ccc(C4(N)CCC4)cc3)nc2n1 [Example 4-0, 1-{4-[7-(2-amino-ethoxy)-3-phenyl-imidazo[1,2-a]pyrimidin-2-yl]-phenyl}-cyclobutylamine]	4600	548	1460		
NC1(c2ccc(-c3nc4ccc(O)cn4c3-c3ccccc3)cc2)CCC1 [Example 5-0, 2-[4-(1-amino-cyclobutyl)-phenyl]-3-phenyl-imidazo[1,2-a]pyridin-6-ol]	3200	303	103		
NC1(c2ccc(-c3nc4c(O)cccn4c3-c3ccccc3)cc2)CCC1 [Example 5-1, 2-[4-(1-amino-cyclobutyl)-phenyl]-3-phenyl-imidazo[1,2-a]pyridin-8-ol]	10000	590	3480		
C#Cc1ccn2c(-c3ccccc3)c(-c3ccc(C4(N)CCC4)cc3)nc2c1 [Example 7-0, 1-[4-(7-ethynyl-3-phenyl-imidazo[1,2-a]pyridin-2-yl)-phenyl]-cyclobutylamine]	2400	1660	1770		
NC(=O)CCc1ccn2c(-c3ccccc3)c(-c3ccc(C4(N)CCC4)cc3)nc2c1 [Example 8-0, 3-{2-[4-(1-amino-cyclobutyl)-phenyl]-3-phenyl-imidazo[1,2-a]pyridin-7-yl}-propionamide]	10000	12700	1270		
COC(=O)COc1ccn2c(-c3ccccc3)c(-c3ccc(C4(N)CCC4)cc3)nc2c1 [Example 9-0, {2-[4-(1-amino-cyclobutyl)-phenyl]-3-phenyl-imidazo[1,2-a]pyridin-7-yloxy}-acetic acid methyl ester]	2500	158	923		
NC(=O)COc1ccn2c(-c3ccccc3)c(-c3ccc(C4(N)CCC4)cc3)nc2c1 [Example 9-1]	1700	397	90		
CN(C)C(=O)COc1ccn2c(-c3ccccc3)c(-c3ccc(C4(N)CCC4)cc3)nc2c1 [Example 9-2]	900	258	25		
COC(=O)COc1ccc2nc(-c3ccc(C4(N)CCC4)cc3)c(-c3ccccc3)n2c1 [Example 9-4]	3100	179	6470		
N#CCOc1ccc2nc(-c3ccc(C4(N)CCC4)cc3)c(-c3ccccc3)n2c1 [Example 9-5]	2200	96	51		
NC1(c2ccc(-c3nc4cc(O)ccn4c3-c3ccccc3)cc2)CCC1 [Example 10-0, 2-[4-(1-amino-cyclobutyl)-phenyl]-3-phenyl-imidazo[1,2-a]pyridin-7-ol]	7900	1270	308		
